Holding throughout (experiment): EC50 assay: Ba/F3 stable cell proliferation (CCK-8, 72 h)
What all share (type): cell-based

Test [1] has as its target T1, Ba/F3 stable cells (Homo sapiens, UniProt P00533, DUP767-769, cells depend on it).
T1 construct: EC50 Ba/F3-EGFR V769-D770insASV; other: Ba/F3-EGFR V769-D770insASV cells, 72 h, CCK-8
Particulars: Ba/F3-EGFR V769-D770insASV cells. In short, it runs like this: (§1)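 Ba/F3 stable cells were seeded at 4,000 cells/90 μL/well in 96-well plates and held 2 h at 37° C. in 5% CO2, then given 10 μL of serially titrated compound (0.1% DMSO final). After 72 h at 37° C., CCK-8 reagent was added for 4 hours and absorbance read at 450 nm to derive EC50.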

The target of test [2] is T2, Ba/F3 stable cells (Homo sapiens, UniProt P00533, DUP768-770, cells depend on it).
T2 construct: EC50 Ba/F3-EGFR D770-N771insSVD; other: Ba/F3-EGFR D770-N771insSVD cells, 72 h, CCK-8
Particulars: Ba/F3-EGFR D770-N771insSVD cells. In short, it runs like this: as §1

The target of test [3] is T3, Ba/F3 stable cells (Homo sapiens, UniProt P00533, DUP771-773, cells depend on it).
T3 construct: EC50 Ba/F3-EGFR H773-V774insNPH; other: Ba/F3-EGFR H773-V774insNPH cells, 72 h, CCK-8
Particulars: Ba/F3-EGFR H773-V774insNPH cells. The method, boiled down:
as §1

For test [4], the target named is T4, Ba/F3 stable cells (Homo sapiens, UniProt P00533, INS763FQEA, cells depend on it).
T4 construct: EC50 Ba/F3-EGFR A763-Y764insFQEA; other: Ba/F3-EGFR A763-Y764insFQEA cells, 72 h, CCK-8
Particulars: Ba/F3-EGFR A763-Y764insFQEA cells. The method, boiled down: as §1

Test [5] concerns the target T5, Ba/F3 stable cells (Homo sapiens, UniProt P00533, T790M/L858R, cells depend on it).
T5 construct: EC50 Ba/F3-EGFR L858R-T790M; other: Ba/F3-EGFR L858R-T790M cells, 72 h, CCK-8
Conditions: Ba/F3-EGFR L858R-T790M cells. The method, boiled down:
as §1

Test [6] has as its target T6, Ba/F3 stable cells (Homo sapiens, UniProt P04626, DUP772-775, cells depend on it).
T6 construct: EC50 Ba/F3-HER2 A775-G776insYVMA; other: Ba/F3-HER2 A775-G776insYVMA cells, 72 h, CCK-8
Particulars: Ba/F3-HER2 A775-G776insYVMA cells. In short, it runs like this: as §1

Where only a bound is given, the exact number is not on record here.

T5 sequence (P00533 whole entry T790M/L858R): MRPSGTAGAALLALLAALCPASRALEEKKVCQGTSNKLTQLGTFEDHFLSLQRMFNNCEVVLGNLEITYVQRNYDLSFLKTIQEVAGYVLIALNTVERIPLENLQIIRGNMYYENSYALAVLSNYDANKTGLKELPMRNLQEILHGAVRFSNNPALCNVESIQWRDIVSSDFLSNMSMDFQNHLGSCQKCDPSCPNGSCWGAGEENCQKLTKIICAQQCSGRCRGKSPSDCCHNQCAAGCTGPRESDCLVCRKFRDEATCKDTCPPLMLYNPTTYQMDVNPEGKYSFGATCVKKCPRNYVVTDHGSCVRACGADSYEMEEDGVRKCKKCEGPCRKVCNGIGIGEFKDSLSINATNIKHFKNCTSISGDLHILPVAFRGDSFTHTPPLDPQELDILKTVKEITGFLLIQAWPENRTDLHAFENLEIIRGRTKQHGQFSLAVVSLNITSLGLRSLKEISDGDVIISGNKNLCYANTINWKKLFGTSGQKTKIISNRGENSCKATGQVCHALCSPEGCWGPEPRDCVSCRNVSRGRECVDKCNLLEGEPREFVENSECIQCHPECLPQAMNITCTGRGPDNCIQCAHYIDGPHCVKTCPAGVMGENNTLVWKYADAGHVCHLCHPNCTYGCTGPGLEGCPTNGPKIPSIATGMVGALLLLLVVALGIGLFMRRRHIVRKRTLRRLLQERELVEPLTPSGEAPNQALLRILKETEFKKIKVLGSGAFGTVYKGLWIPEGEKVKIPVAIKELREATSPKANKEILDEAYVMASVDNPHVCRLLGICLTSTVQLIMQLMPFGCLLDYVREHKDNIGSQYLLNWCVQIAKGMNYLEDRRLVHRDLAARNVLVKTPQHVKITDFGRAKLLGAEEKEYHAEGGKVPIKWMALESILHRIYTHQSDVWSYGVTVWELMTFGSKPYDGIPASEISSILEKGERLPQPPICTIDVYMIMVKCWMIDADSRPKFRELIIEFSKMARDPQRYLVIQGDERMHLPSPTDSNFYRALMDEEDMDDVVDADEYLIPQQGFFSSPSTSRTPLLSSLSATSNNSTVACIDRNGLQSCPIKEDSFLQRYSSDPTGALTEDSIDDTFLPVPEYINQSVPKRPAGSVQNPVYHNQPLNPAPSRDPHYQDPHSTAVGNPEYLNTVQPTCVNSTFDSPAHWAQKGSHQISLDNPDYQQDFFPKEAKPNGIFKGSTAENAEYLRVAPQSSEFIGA
T6 sequence (P04626 with tags, fused parts or gaps DUP772-775): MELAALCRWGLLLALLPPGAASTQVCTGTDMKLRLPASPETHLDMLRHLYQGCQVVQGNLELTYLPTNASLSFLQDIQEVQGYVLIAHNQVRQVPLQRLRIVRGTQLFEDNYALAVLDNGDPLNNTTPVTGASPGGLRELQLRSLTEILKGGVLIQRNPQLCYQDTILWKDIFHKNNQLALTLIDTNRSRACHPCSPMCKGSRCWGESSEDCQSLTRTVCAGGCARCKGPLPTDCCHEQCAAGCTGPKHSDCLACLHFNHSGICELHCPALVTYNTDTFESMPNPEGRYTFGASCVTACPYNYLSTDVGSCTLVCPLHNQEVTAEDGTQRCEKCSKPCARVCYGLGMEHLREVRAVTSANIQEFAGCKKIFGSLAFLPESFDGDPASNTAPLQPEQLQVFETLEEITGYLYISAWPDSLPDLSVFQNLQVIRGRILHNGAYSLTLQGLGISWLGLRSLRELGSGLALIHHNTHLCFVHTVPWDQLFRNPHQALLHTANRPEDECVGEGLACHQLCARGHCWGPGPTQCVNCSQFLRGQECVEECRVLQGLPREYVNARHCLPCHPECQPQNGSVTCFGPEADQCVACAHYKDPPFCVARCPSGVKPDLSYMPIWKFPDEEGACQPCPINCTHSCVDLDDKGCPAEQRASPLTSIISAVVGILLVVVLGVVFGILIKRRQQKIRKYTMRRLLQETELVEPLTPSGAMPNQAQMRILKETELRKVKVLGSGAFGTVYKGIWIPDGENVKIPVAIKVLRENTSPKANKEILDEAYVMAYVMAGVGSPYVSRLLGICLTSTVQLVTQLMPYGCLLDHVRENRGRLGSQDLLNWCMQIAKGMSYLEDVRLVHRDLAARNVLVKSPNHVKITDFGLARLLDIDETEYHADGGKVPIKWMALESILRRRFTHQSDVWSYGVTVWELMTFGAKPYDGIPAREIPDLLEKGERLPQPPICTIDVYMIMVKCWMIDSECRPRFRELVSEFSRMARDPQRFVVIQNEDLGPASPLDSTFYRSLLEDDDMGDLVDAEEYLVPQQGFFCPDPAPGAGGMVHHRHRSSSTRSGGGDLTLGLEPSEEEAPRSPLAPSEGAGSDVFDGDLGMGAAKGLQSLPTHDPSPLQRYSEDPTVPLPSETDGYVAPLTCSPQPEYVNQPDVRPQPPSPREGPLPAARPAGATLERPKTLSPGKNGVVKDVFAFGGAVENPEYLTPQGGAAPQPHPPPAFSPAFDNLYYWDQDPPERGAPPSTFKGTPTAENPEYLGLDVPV
T1 sequence (P00533 with tags, fused parts or gaps DUP767-769): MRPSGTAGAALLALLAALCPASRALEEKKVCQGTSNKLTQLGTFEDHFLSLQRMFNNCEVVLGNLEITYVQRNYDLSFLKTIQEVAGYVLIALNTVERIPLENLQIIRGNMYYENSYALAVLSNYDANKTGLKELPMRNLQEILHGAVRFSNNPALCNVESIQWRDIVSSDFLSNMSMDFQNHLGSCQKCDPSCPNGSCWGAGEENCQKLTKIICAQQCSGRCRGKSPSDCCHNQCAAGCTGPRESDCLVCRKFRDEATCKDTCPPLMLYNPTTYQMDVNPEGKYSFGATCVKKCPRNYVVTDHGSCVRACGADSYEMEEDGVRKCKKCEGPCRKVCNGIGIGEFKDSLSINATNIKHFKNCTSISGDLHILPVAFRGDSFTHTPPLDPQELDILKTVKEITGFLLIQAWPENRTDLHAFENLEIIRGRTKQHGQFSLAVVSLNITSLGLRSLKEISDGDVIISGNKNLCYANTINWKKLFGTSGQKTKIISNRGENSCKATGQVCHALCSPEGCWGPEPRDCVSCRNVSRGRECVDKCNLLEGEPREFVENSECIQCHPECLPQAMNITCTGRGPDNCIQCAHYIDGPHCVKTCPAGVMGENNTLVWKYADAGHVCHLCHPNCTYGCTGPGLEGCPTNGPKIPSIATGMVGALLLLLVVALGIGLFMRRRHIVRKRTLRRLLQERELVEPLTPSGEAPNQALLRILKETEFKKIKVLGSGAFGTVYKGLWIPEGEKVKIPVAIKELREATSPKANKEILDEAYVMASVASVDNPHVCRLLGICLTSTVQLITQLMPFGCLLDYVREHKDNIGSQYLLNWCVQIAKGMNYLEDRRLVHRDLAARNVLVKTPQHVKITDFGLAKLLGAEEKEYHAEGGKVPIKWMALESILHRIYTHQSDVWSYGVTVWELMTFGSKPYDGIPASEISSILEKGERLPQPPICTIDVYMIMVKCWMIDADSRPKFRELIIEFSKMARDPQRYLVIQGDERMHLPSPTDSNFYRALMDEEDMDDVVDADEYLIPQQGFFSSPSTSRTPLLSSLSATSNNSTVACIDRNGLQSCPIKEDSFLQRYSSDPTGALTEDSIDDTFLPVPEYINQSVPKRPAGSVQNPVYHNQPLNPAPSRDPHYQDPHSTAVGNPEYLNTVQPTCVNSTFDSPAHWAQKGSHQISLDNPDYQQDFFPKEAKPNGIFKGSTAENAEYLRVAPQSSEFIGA
T4 sequence (P00533 with tags, fused parts or gaps INS763FQEA): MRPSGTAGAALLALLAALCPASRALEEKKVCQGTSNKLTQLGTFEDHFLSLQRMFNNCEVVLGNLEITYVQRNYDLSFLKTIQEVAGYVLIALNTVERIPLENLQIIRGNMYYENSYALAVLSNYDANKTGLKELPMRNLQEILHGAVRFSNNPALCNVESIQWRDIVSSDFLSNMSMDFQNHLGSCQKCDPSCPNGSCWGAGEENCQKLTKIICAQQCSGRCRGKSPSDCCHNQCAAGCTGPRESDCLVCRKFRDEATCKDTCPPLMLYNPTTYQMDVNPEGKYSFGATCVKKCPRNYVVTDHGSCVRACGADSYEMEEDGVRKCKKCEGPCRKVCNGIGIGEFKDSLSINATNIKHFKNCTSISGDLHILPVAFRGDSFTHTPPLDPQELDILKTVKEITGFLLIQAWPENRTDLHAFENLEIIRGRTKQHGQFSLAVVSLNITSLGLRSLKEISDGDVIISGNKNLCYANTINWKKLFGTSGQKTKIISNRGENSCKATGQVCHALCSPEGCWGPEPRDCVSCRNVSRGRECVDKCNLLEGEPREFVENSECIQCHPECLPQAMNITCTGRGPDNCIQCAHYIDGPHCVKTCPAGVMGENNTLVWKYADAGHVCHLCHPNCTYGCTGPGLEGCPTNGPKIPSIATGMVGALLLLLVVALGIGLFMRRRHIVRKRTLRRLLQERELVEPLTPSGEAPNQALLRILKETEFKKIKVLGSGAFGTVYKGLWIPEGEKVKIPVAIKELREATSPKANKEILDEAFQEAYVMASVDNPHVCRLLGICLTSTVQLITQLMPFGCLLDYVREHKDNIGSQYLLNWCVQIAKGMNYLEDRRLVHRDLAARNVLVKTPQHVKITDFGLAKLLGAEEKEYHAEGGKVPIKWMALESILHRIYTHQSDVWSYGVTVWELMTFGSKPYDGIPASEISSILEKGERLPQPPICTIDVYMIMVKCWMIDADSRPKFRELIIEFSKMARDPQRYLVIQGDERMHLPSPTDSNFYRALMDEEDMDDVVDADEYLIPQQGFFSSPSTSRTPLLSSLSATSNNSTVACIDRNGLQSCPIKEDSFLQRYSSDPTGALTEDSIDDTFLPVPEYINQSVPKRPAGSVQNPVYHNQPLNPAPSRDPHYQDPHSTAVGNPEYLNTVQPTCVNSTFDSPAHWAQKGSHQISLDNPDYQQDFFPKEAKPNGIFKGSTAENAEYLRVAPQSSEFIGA

The term EC50 denotes the concentration that produces a half-maximal response. `C=CC(=O)N1CCC(Oc2cc3c(Nc4cc5oc6ccccc6c5cc4OC)ncnc3cc2OC)CC1` [Compound 151, 1-(4-((7-methoxy-4-((2-methoxydibenzo[b,d]furan-3-yl)amino)quinazolin-6-yl)oxy)piperidin-1-yl)prop-2-en-1-one]: the EC50 on Ba/F3 stable cells [1], at Ba/F3 stable cells [2], at Ba/F3 stable cells [3], at Ba/F3 stable cells [4], at Ba/F3 stable cells [5] and at Ba/F3 stable cells [6] was > 1000 nM throughout.

Turning to `C=CC(=O)N1CCC(Oc2cc3c(Nc4ccc5c(c4)OCO5)ncnc3cc2OC)CC1` [Compound 152, 1-(4-((4-(benzo[d][1,3]dioxol-5-ylamino)-7-methoxyquinazolin-6-yl)oxy)piperidin-1-yl)prop-2-en-1-one], the EC50 on Ba/F3 stable cells [1] was 200 to 1000 nM; at Ba/F3 stable cells [2] it was 200 to 1000 nM; on Ba/F3 stable cells [3], 200 to 1000 nM; on Ba/F3 stable cells [4], ≤ 200 nM; on Ba/F3 stable cells [5], 200 to 1000 nM; at Ba/F3 stable cells [6], ≤ 200 nM.

Turning to `C=CC(=O)N1CCC(Oc2cc3c(Nc4ccc5c(c4)CCC5)ncnc3cc2OC)CC1` [Compound 153, 1-(4-((4-((2,3-dihydro-1H-inden-5-yl)amino)-7-methoxyquinazolin-6-yl)oxy)piperidin-1-yl)prop-2-en-1-one], the concentration for a half-maximal effect (EC50) at Ba/F3 stable cells [1] was ≤ 200 nM; at Ba/F3 stable cells [2] it was 200 to 1000 nM; at Ba/F3 stable cells [3], 200 to 1000 nM; on Ba/F3 stable cells [4] it was ≤ 200 nM; on Ba/F3 stable cells [5], 200 to 1000 nM; on Ba/F3 stable cells [6], 200 to 1000 nM.

Take `C=CC(=O)N1CCC(Oc2cc3c(Nc4ccc5sc(C)nc5c4)ncnc3cc2OC)CC1` [Compound 155, 1-(4-((7-methoxy-4-((2-methylbenzo[d]thiazol-5-yl)amino)quinazolin-6-yl)oxy)piperidin-1-yl)prop-2-en-1-one]: the EC50 on Ba/F3 stable cells [1] was > 1000 nM; at Ba/F3 stable cells [2], > 1000 nM; at Ba/F3 stable cells [3], > 1000 nM; at Ba/F3 stable cells [4], ≤ 200 nM; on Ba/F3 stable cells [5], 200 to 1000 nM; at Ba/F3 stable cells [6], 200 to 1000 nM.

In the case of `C=CC(=O)N1CCC(Oc2cc3c(Nc4cccc5c4CCC5)ncnc3cc2OC)CC1` [Compound 156, 1-(4-((4-((2,3-dihydro-1H-inden-4-yl)amino)-7-methoxyquinazolin-6-yl)oxy)piperidin-1-yl)prop-2-en-1-one], the EC50 at Ba/F3 stable cells [1] is ≤ 200 nM; on Ba/F3 stable cells [2], 200 to 1000 nM; on Ba/F3 stable cells [3], ≤ 200 nM; at Ba/F3 stable cells [4], ≤ 200 nM; on Ba/F3 stable cells [5], 200 to 1000 nM; at Ba/F3 stable cells [6], ≤ 200 nM.

With `C=CC(=O)N1CCC(Oc2cc3c(Nc4ccc5ccccc5n4)ncnc3cc2OC)CC1` [Compound 158, 1-(4-((7-methoxy-4-(quinolin-2-ylamino)quinazolin-6-yl)oxy)piperidin-1-yl)prop-2-en-1-one], the EC50 on Ba/F3 stable cells [1] was 200 to 1000 nM; at Ba/F3 stable cells [2], > 1000 nM; at Ba/F3 stable cells [3] it was 200 to 1000 nM; on Ba/F3 stable cells [4], ≤ 200 nM; at Ba/F3 stable cells [5], ≤ 200 nM; at Ba/F3 stable cells [6], > 1000 nM.

Take `C=CC(=O)N1CCC(Oc2cc3c(Nc4cc5ccccc5cn4)ncnc3cc2OC)CC1` [Compound 159, 1-(4-((4-(isoquinolin-3-ylamino)-7-methoxyquinazolin-6-yl)oxy)piperidin-1-yl)prop-2-en-1-one]: the EC50 on Ba/F3 stable cells [1] is 200 to 1000 nM; at Ba/F3 stable cells [2], > 1000 nM; on Ba/F3 stable cells [3], 200 to 1000 nM; on Ba/F3 stable cells [4], ≤ 200 nM; at Ba/F3 stable cells [5] it was 200 to 1000 nM; at Ba/F3 stable cells [6] it was 200 to 1000 nM.

As for `C=CC(=O)N1CCC(Oc2cc3c(Nc4ccc5ccccc5c4Cl)ncnc3cc2OC)CC1` [Compound 160, 1-(4-((4-((1-chloronaphthalen-2-yl)amino)-7-methoxyquinazolin-6-yl)oxy)piperidin-1-yl)prop-2-en-1-one], the EC50 at Ba/F3 stable cells [1] was ≤ 200 nM; on Ba/F3 stable cells [2], > 1000 nM; at Ba/F3 stable cells [3] it was 200 to 1000 nM; on Ba/F3 stable cells [4] it was ≤ 200 nM; on Ba/F3 stable cells [5] it was 200 to 1000 nM; at Ba/F3 stable cells [6], > 1000 nM.

As to `C=CC(=O)N1CCC(Oc2cc3c(Nc4nccc5ccccc45)ncnc3cc2OC)CC1` [Compound 161, 1-(4-((4-(isoquinolin-1-ylamino)-7-methoxyquinazolin-6-yl)oxy)piperidin-1-yl)prop-2-en-1-one], the EC50 was 200 to 1000 nM at Ba/F3 stable cells [1]; > 1000 nM at Ba/F3 stable cells [2]; 200 to 1000 nM on Ba/F3 stable cells [3]; ≤ 200 nM at Ba/F3 stable cells [4]; 200 to 1000 nM on Ba/F3 stable cells [5]; > 1000 nM on Ba/F3 stable cells [6].

For `C=CC(=O)N1CCC(Oc2cc3c(Nc4ccnc5ccccc45)ncnc3cc2OC)CC1` [Compound 162, 1-(4-((7-methoxy-4-(quinolin-4-ylamino)quinazolin-6-yl)oxy)piperidin-1-yl)prop-2-en-1-one], the EC50 at Ba/F3 stable cells [1] was ≤ 200 nM; on Ba/F3 stable cells [2] it was > 1000 nM; on Ba/F3 stable cells [3], 200 to 1000 nM; at Ba/F3 stable cells [4] it was ≤ 200 nM; on Ba/F3 stable cells [5] it was ≤ 200 nM; at Ba/F3 stable cells [6], 200 to 1000 nM.

As to `C=CC(=O)N1CCC(Oc2cc3c(Nc4ccc(Cl)c5ccccc45)ncnc3cc2OC)CC1` [Compound 164, 1-(4-((4-((4-chloronaphthalen-1-yl)amino)-7-methoxyquinazolin-6-yl)oxy)piperidin-1-yl)prop-2-en-1-one], the EC50 on Ba/F3 stable cells [1] was ≤ 200 nM; at Ba/F3 stable cells [2] it was 200 to 1000 nM; on Ba/F3 stable cells [3], 200 to 1000 nM; at Ba/F3 stable cells [4], ≤ 200 nM; at Ba/F3 stable cells [5], ≤ 200 nM; on Ba/F3 stable cells [6], 200 to 1000 nM.

Consider `C=CC(=O)N1CCC(Oc2cc3c(Nc4cccc5[nH]ccc45)ncnc3cc2OC)CC1` [Compound 165, 1-(4-((4-((1H-indol-4-yl)amino)-7-methoxyquinazolin-6-yl)oxy)piperidin-1-yl)prop-2-en-1-one], for which the concentration for a half-maximal effect (EC50) on Ba/F3 stable cells [1] is 200 to 1000 nM; on Ba/F3 stable cells [2], > 1000 nM; at Ba/F3 stable cells [3], 200 to 1000 nM; at Ba/F3 stable cells [4], ≤ 200 nM; at Ba/F3 stable cells [5], 200 to 1000 nM; at Ba/F3 stable cells [6], > 1000 nM.

Consider `C=CC(=O)N1CCC(Oc2cc3c(Nc4cccc5cc[nH]c45)ncnc3cc2OC)CC1` [Compound 166, 1-(4-((4-((1H-indol-7-yl)amino)-7-methoxyquinazolin-6-yl)oxy)piperidin-1-yl)prop-2-en-1-one], for which the EC50 at Ba/F3 stable cells [1] was ≤ 200 nM; on Ba/F3 stable cells [2], > 1000 nM; at Ba/F3 stable cells [3], ≤ 200 nM; on Ba/F3 stable cells [4], ≤ 200 nM; on Ba/F3 stable cells [5], 200 to 1000 nM; on Ba/F3 stable cells [6], ≤ 200 nM.

As for `C=CC(=O)N1CCC(Oc2cc3c(Nc4ccc(C)c5ccccc45)ncnc3cc2OC)CC1` [Compound 167, 1-(4-((7-methoxy-4-((4-methylnaphthalen-1-yl)amino)quinazolin-6-yl)oxy)piperidin-1-yl)prop-2-en-1-one], the EC50 on Ba/F3 stable cells [1] is 200 to 1000 nM; at Ba/F3 stable cells [2] it was > 1000 nM; on Ba/F3 stable cells [3], 200 to 1000 nM; at Ba/F3 stable cells [4], ≤ 200 nM; at Ba/F3 stable cells [5], ≤ 200 nM; on Ba/F3 stable cells [6] it was 200 to 1000 nM.

As to `C=CC(=O)N1CCC(Oc2cc3c(Nc4ccc5c(c4)CCN5)ncnc3cc2OC)CC1` [Compound 168, 1-(4-((4-(indolin-5-ylamino)-7-methoxyquinazolin-6-yl)oxy)piperidin-1-yl)prop-2-en-1-one], the EC50 was ≤ 200 nM on Ba/F3 stable cells [1]; 200 to 1000 nM at Ba/F3 stable cells [2]; ≤ 200 nM on Ba/F3 stable cells [3]; ≤ 200 nM at Ba/F3 stable cells [4]; > 1000 nM at Ba/F3 stable cells [5]; ≤ 200 nM at Ba/F3 stable cells [6].
